Common to all, as to type: biochemical
Experiment [1] concerns the target T1, recombinant human 17β-HSD2 (Homo sapiens, UniProt P37059).
T1 construct: made in house; host or cells: Sd9 (Sf9) insect cells, baculovirus (Bac to Bac Expression System)
T1 sequence (P37059 1-387): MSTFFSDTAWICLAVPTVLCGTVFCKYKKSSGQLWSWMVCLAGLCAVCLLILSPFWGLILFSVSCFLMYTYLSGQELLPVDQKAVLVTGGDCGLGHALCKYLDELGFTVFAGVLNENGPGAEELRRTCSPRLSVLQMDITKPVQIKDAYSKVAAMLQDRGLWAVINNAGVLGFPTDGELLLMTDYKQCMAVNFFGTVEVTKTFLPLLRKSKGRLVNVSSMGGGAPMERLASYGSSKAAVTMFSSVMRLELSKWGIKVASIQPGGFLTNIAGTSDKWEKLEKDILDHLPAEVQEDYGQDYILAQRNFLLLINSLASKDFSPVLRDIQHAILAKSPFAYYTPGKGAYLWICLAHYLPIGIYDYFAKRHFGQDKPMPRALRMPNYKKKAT
The experiment in a line: Inhibition of recombinant human 17β-HSD2. The following applies: inhibitor 1 μM; 50 nM estradiol, 1 mM NADH, 30 min RT. Here is the method: 17β-HSD2 production and isolation: Similarly to 17β-HSD1 the Recombinant baculovirus was generated by the “Bac to Bac Expression System” (Invitrogen). Recombinant bacmid was transfected to Sd9 insect cells using “Cellfectin Reagent” (Invitrogen). 60 h later cells were harvested and supernatant were fractionated by the following protocol: • cells were dissolved into 40 ml of A-buffer (40 mM TRIS, pH 8.0, 20% glycerol, 20 μM NAD, 0.4 mM PMSF, 150 mM NaCl, 0.5% dodecyl-β-maltoside+protease inhibitor cocktail) • cells were sonicated • lysate was incubated on ice for 15 min • lysate was centrifuged 5000 rpm 15 min, +4° C. • centrifugation of the supernatant 180 000 g 30 min, +4° C. • pellet was dissolved into 8 ml of A-buffer • not resuspended material was removed by centrifugation 5000 rpm min, +4° C. • the clear supernatant was divided into 100 μl aliquots and were stored frozen until determination of enzymatic activity.
The amount of 17β-HSD2 was analysed by immunoblotting and total protein concentration of each extract batch was determined.
Assay—Inhibition of recombinant human 17β-HSD2: Recombinant protein (4 μg/ml) was incubated in 20 mM KH2PO4 pH 8.5 with 50 nM estradiol (including 800 000 cpm/ml of ^3H-estradiol) and 1 mM NADH for 30 min at RT, in the presence of the potential inhibitor at concentrations 1 μM or 0.1 μM. Inhibitor stock solutions were prepared in DMSO. Final concentration of DMSO was adjusted to 1% in all samples. The enzyme reaction was stopped by addition of 10% trichloroacetic acid (final concentration). Samples were centrifuged in a microtiter plate at 4000 rpm for 10 min. Supernatants were applied to reverse phase HPLC on a Waters Symmetry C18 column, equipped with a Waters Sentry Guard column. Isocratic HPLC runs were performed at RT at a flow rate of 1 ml/min in acetonitrile:water 48:52 as running solvent. Radioactivity was monitored in the eluate by a Scintillation Analyzer. Total radioactivity for estrone and estradiol were determined in each sample and percent conversion of estradiol to estrone was calculated according to the following formula:
(§1) [formula] Percent inhibition was calculated flowingly: % inhibition=100−% conversion

Experiment [2] relates to HSD1 enzyme that is expressed in rabbit placenta tissue. As to the kind of experiment: Inhibition of E1 to E2 conversion in rabbit placenta tissue homogenate. The following applies: inhibitor 100 nM, 30 nM estrone, 30 min. As to the method: The assay is based on an enzymatic reaction where HSD1 enzyme that is expressed in rabbit placenta tissue converts its natural substance estrone (E1) to estradiol (E2) in the presence of a co-factor β-NADPH.
Homogenization of rabbit placenta tissue: Weight a piece of the frozen tissue into a Precellys ck28 bead tube. Add buffer solution (20 mM KH2PO4 with 1 mM EDTA, pH 7,4) in 1:2 ratio (e.g. 300 mg of tissue:600 μl reaction buffer solution). Insert the bead tubes to homogenizer and homogenize 2×30 s. 6000 rpm. Centrifugated 5 min., 2600 rpm at +4° C. and collect supernatant. Aliquots of homogenate are stored in −80° C.
Assay—Inhibition of E1 to E2 conversion in rabbit placenta tissue: The reaction takes place in a buffer solution (20 mM KH2PO4 with 1 mM EDTA, pH 7,4), including appropriate amount of rabbit placenta homogenate, co-factor (1 mM β-NADPH), Substrate (30 nM estrone), labelled substrate as tracer (5 nM [^3H]-estrone). During a 30-minute incubation part of the estrone is converted to estradiol. The reaction is stopped by lowering the pH to 1 with 10% trichloro acetic acid (TCA). The substrate and conversion products are analyzed by HPLC and a Scintillation counter analyzer. Total radioactivity for estrone and estradiol were determined in each sample and percent conversion of estrone to estradiol was calculated according to the following formula:
Percent inhibition was calculated flowingly: % inhibition=100−% conversion.

Experiment [3] concerns the target T2, recombinant human 17β-HSD1 (Homo sapiens, UniProt P14061).
T2 construct: made in house; host or cells: Sd9 (Sf9) insect cells, baculovirus (Bac to Bac Expression System)
T2 sequence (P14061 1-328): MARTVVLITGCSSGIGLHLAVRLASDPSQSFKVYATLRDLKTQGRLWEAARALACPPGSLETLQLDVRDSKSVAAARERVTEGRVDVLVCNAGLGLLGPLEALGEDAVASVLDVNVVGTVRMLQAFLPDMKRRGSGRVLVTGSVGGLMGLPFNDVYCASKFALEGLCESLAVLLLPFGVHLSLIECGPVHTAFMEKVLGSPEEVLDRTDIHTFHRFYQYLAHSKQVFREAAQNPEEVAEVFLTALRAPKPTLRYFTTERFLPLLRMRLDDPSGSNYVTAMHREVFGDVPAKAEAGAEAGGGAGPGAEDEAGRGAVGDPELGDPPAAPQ
The experiment in a line: Inhibition of recombinant human 17β-HSD1. To be noted: inhibitor 100 nM; 30 nM estrone, 1 mM NADPH, 30 min RT. As to the method:
17β-HSD1 production and isolation: Recombinant baculovirus was generated by the “Bac to Bac Expression System” (Invitrogen). Recombinant bacmid was transfected to Sd9 insect cells using “Cellfectin Reagent” (Invitrogen). 60 h later cells were harvested; the microsomal fraction was isolated as described by Puranen, T. J., Poutanen, M. H., Peltoketo, H. E., Vihko, P. T. and Vihko, R. K. (1994) Site-directed mutagenesis of the putative active site of human 17 β-hydroxysteroid dehydrogenase type 1. Biochem. J. 304: 289-293. Aliquots were stored frozen until determination of enzymatic activity.
Assay—Inhibition of recombinant human 17β-HSD1: Recombinant protein (1 μg/ml) was incubated in 20 mM KH2PO4 pH 7.4 with 30 nM estrone (including 800 000 cpm/ml of ^3H-estrone) and 1 mM NADPH for 30 min at RT, in the presence of the potential inhibitor at concentrations 1 μM or 0.1 μM. Inhibitor stock solutions were prepared in DMSO. Final concentration of DMSO was adjusted to 1% in all samples. The enzyme reaction was stopped by addition of 10% trichloroacetic acid (final concentration). Samples were centrifuged in a microtiter plate at 4000 rpm for 10 min. Supernatants were applied to reverse phase HPLC on a Waters Symmetry C18 column, equipped with a Waters Sentry Guard column. Isocratic HPLC runs were performed at RT at a flow rate of 1 ml/min in acetonitrile:water 48:52 as running solvent. Radioactivity was monitored in the eluate by a Scintillation Analyzer. Total radioactivity for estrone and estradiol were determined in each sample and percent conversion of estrone to estradiol was calculated according to the following formula:
as §1

SMILES strings stand for the structures.

As a reminder, the inhibition is the change of the read-out against control, counted positive when it falls. Turning to `C[C@]12CCC3c4ccc(Cl)cc4CCC3C1[C@H](CCC(=O)N1CCC3(CCOCC3)C1)C/C2=N\O` (stereo partly drawn) [Compound 48, 3-((13S,15R,E)-3-chloro-17-(hydroxyimino)-13-methyl-7,8,9,11,12,13,14,15,16,17-decahydro-6H-cyclopenta[a]phenanthren-15-yl)-1-(8-oxa-2-azaspiro[4.5]decan-2-yl)propan-1-one], the inhibition at 1 µM in experiment [1] is -2%. Besides, the “Rabbit placenta inhibition % @100 nM” value in experiment [2] turned out to be 1%. Further, the inhibition at 0.1 µM in experiment [3] came out at 30%.

`COc1ccc(NC(=O)CC[C@@H]2C/C(=N\O)[C@@]3(C)CCC4c5ccc(Cl)cc5CCC4C23)nn1` (stereo partly drawn) [Compound 50, 3-((13S,15R,E)-3-chloro-17-(hydroxyimino)-13-methyl-7,8,9,11,12,13,14,15,16,17-decahydro-6H-cyclopenta[a]phenanthren-15-yl)-N-(6-methoxypyridazin-3-yl)propanamide]: the inhibition at 1 µM in experiment [1] is -2%. Moreover, the “Rabbit placenta inhibition % @100 nM” value in experiment [2] turned out to be 42%. In addition, in experiment [3], the inhibition at 0.1 µM was 37%.

`CCN(CC)C(=O)CC[C@@H]1C/C(=N\O)[C@@]2(C)CCC3c4ccc(Cl)cc4CCC3C12` (stereo partly drawn) [Compound 52, 3-((13S,15R,E)-3-chloro-17-(hydroxyimino)-13-methyl-7,8,9,11,12,13,14,15,16,17-decahydro-6H-cyclopenta[a]phenanthren-15-yl)-N,N-diethylpropanamide]: the inhibition at 1 µM in experiment [1] stood at 2%. Moreover, in experiment [2], the “Rabbit placenta inhibition % @100 nM” value stood at 6%. In addition, the inhibition at 0.1 µM in experiment [3] was found to be 64%.

As for `Cc1cc(NC(=O)CC[C@@H]2C/C(=N\O)[C@@]3(C)CCC4c5ccc(Cl)cc5CCC4C23)no1` (stereo partly drawn) [Compound 54, 3-((13S,15R,E)-3-chloro-17-(hydroxyimino)-13-methyl-7,8,9,11,12,13,14,15,16,17-decahydro-6H-cyclopenta[a]phenanthren-15-yl)-N-(5-methylisoxazol-3-yl)propanamide], in experiment [1], the inhibition at 1 µM came to 0%. In experiment [2], the “Rabbit placenta inhibition % @100 nM” value was 10%. Further, the inhibition at 0.1 µM in experiment [3] was found to be 47%.

In the case of `C[C@]12CCC3c4ccc(Cl)cc4CCC3C1[C@H](CCC(=O)Nc1ccc(F)cn1)C/C2=N\O` (stereo partly drawn) [Compound 58, 3-((13S,15R,E)-3-chloro-17-(hydroxyimino)-13-methyl-7,8,9,11,12,13,14,15,16,17-decahydro-6H-cyclopenta[a]phenanthren-15-yl)-N-(5-fluoropyridin-2-yl)propanamide], in experiment [1], the inhibition at 1 µM amounted to 18%. The “Rabbit placenta inhibition % @100 nM” value in experiment [2] came to 1%. Moreover, the inhibition at 0.1 µM in experiment [3] turned out to be 60%.

For `Cc1cccnc1NC(=O)CC[C@@H]1C/C(=N\O)[C@@]2(C)CCC3c4ccc(Cl)cc4CCC3C12` (stereo partly drawn) [Compound 60, 3-((13S,15R,E)-3-chloro-17-(hydroxyimino)-13-methyl-7,8,9,11,12,13,14,15,16,17-decahydro-6H-cyclopenta[a]phenanthren-15-yl)-N-(3-methylpyridin-2-yl)propanamide], the inhibition at 1 µM in experiment [1] was 2%. Also, the “Rabbit placenta inhibition % @100 nM” value in experiment [2] is reported as 4%. Also, the inhibition at 0.1 µM in experiment [3] turned out to be 38%.

As for `C[C@]12CCC3c4ccc(Cl)cc4CCC3C1[C@H](CCC(=O)Nc1ncccc1F)C/C2=N\O` (stereo partly drawn) [Compound 62, 3-((13S,15R,E)-3-chloro-17-(hydroxyimino)-13-methyl-7,8,9,11,12,13,14,15,16,17-decahydro-6H-cyclopenta[a]phenanthren-15-yl)-N-(3-fluoropyridin-2-yl)propanamide], the “HSD2 inhibition % @1 μM” value in experiment [1] is on record as −8%. Further, in experiment [2], the “Rabbit placenta inhibition % @100 nM” value was 3%. The inhibition at 0.1 µM in experiment [3] worked out at 45%.

For `Cc1cnc(NC(=O)CC[C@@H]2C/C(=N\O)[C@@]3(C)CCC4c5ccc(Cl)cc5CCC4C23)o1` (stereo partly drawn) [Compound 64, 3-((13S,15R,E)-3-chloro-17-(hydroxyimino)-13-methyl-7,8,9,11,12,13,14,15,16,17-decahydro-6H-cyclopenta[a]phenanthren-15-yl)-N-(5-methyloxazol-2-yl)propanamide], in experiment [1], the inhibition at 1 µM was 0%. Further, the “Rabbit placenta inhibition % @100 nM” value in experiment [2] came to 5%. In addition, the inhibition at 0.1 µM in experiment [3] turned out to be 26%.

As to `COc1ccc(NC(=O)CC[C@@H]2C/C(=N\O)[C@@]3(C)CCC4c5ccc(Cl)cc5CCC4C23)nc1` (stereo partly drawn) [Compound 66, 3-((13S,15R,E)-3-chloro-17-(hydroxyimino)-13-methyl-7,8,9,11,12,13,14,15,16,17-decahydro-6H-cyclopenta[a]phenanthren-15-yl)-N-(5-methoxypyridin-2-yl)propanamide], in experiment [1], the inhibition at 1 µM worked out at 23%. The “Rabbit placenta inhibition % @100 nM” value in experiment [2] amounted to 14%. Further, the inhibition at 0.1 µM in experiment [3] came out at 72%.

As for `C[C@]12CCC3c4ccc(Cl)cc4CCC3C1[C@H](CCC(=O)Nc1ccccn1)C/C2=N\O` (stereo partly drawn) [Compound 68, 3-((13S,15R,E)-3-chloro-17-(hydroxyimino)-13-methyl-7,8,9,11,12,13,14,15,16,17-decahydro-6H-cyclopenta[a]phenanthren-15-yl)-N-(pyridin-2-yl)propanamide], the inhibition at 1 µM in experiment [1] turned out to be 3%. Besides, in experiment [2], the “Rabbit placenta inhibition % @100 nM” value is given as 12%. For the same compound, in experiment [3], the inhibition at 0.1 µM was 67%.

For the origin of these results see patent US20240309043A1, “THERAPEUTICALLY ACTIVE STEROIDAL DERIVATIVES” (Organon R&D Finland Ltd., priority 2017, published 2024).
